# According to patent publication US11225499B2, “Chiral platinum complex, method for preparing the same, and method for using the same” (Hefei University of Technology, priority 2019, dated 2022):
# Experiments:
# [1] = tested on: Human oral cancer cells KB-VIN; test: Anti-cancer activity, KB-VIN cells; assay type: cell-based; details: KB-VIn (anti-drug-resistant nasopharyngeal carcinoma)
# [2] = tested on: KB (nasopharyngeal carcinoma)
substance,measurement,setting,value
"[1,4-(4R)-diphenyl-2-oxazolinyl benzene] platinum nitrate complex [Platinum complex (I)]",inhibitory activity ED50,[1],< 10.0 µg/mL
same,inhibitory activity ED50,[2],< 10.0 µg/mL
